Experimental data taken from PubChem BioAssay (NCI).
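Method: 48-hour compound exposure of cells in 96-well plates, five concentrations, linear interpolation of endpoints. At the TGI there is no net growth.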

Key:
Assay in all cases: DTP human tumour cell line panel, 48 h
SN12C renal = tested on: SN12C renal
HCT-15 colon = tested on: HCT-15 colon
HOP-18 NSCLC = tested on: HOP-18 NSCLC
KM12 colon = tested on: KM12 colon
TK-10 renal = tested on: TK-10 renal
SF-295 CNS = tested on: SF-295 CNS
KM20L2 colon = tested on: KM20L2 colon
HL-60(TB) leukemia = tested on: HL-60(TB) leukemia
CCRF-CEM leukemia = tested on: CCRF-CEM leukemia
OVCAR-4 ovarian = tested on: OVCAR-4 ovarian
MALME-3M melanoma = tested on: MALME-3M melanoma
OVCAR-8 ovarian = tested on: OVCAR-8 ovarian
HCT-116 colon = tested on: HCT-116 colon
SF-268 CNS = tested on: SF-268 CNS
RPMI-8226 leukemia = tested on: RPMI-8226 leukemia
DMS 273 small cell lung = tested on: DMS 273 small cell lung
SK-MEL-2 melanoma = tested on: SK-MEL-2 melanoma
A498 renal = tested on: A498 renal
OVCAR-5 ovarian = tested on: OVCAR-5 ovarian
M14 melanoma = tested on: M14 melanoma
CAKI-1 renal = tested on: CAKI-1 renal
COLO 205 colon = tested on: COLO 205 colon
RXF-631 renal = tested on: RXF-631 renal
ACHN renal = tested on: ACHN renal
SNB-19 CNS = tested on: SNB-19 CNS
K-562 leukemia = tested on: K-562 leukemia
A549 NSCLC = tested on: A549 NSCLC
M19-MEL melanoma = tested on: M19-MEL melanoma
SW-620 colon = tested on: SW-620 colon
XF 498 CNS = tested on: XF 498 CNS
SK-OV-3 ovarian = tested on: SK-OV-3 ovarian
SK-MEL-28 melanoma = tested on: SK-MEL-28 melanoma
SF-539 CNS = tested on: SF-539 CNS
MOLT-4 leukemia = tested on: MOLT-4 leukemia
DMS 114 small cell lung = tested on: DMS 114 small cell lung
NCI-H522 lung = tested on: NCI-H522 lung
UACC-257 melanoma = tested on: UACC-257 melanoma
SK-MEL-5 melanoma = tested on: SK-MEL-5 melanoma
HT29 colon = tested on: HT29 colon
UACC-62 melanoma = tested on: UACC-62 melanoma
NCI-H226 lung = tested on: NCI-H226 lung
UO-31 renal = tested on: UO-31 renal
SNB-75 CNS = tested on: SNB-75 CNS
OVCAR-3 ovarian = tested on: OVCAR-3 ovarian
786-0 renal = tested on: 786-0 renal
NCI-H460 lung = tested on: NCI-H460 lung
EKVX NSCLC = tested on: EKVX NSCLC
DLD-1 colon = tested on: DLD-1 colon
NCI-H23 lung = tested on: NCI-H23 lung
IGROV1 ovarian = tested on: IGROV1 ovarian
U251 CNS = tested on: U251 CNS
HOP-92 NSCLC = tested on: HOP-92 NSCLC
RXF 393 renal = tested on: RXF 393 renal
LOX IMVI melanoma = tested on: LOX IMVI melanoma
LXFL 529 NSCLC = tested on: LXFL 529 NSCLC
SR leukemia = tested on: SR leukemia
SNB-78 CNS = tested on: SNB-78 CNS
HOP-62 NSCLC = tested on: HOP-62 NSCLC
HCC-2998 colon = tested on: HCC-2998 colon

For `CC(=O)Nc1cccc2[nH]c3ccccc3c(=O)c12`, the TGI (SN12C renal) was over 100 µM, the TGI (HCT-15 colon) was 42.7 µM and the TGI (HOP-18 NSCLC) was 38.6 µM. The TGI (KM12 colon) was 41.2 µM, the TGI (TK-10 renal) was 50.1 µM and the TGI (SF-295 CNS) was 51.1 µM. For the same compound, the TGI (KM20L2 colon) was 83.3 µM, the TGI (HL-60(TB) leukemia) was 39.8 µM and the TGI (CCRF-CEM leukemia) was over 100 µM. It also gave a TGI (OVCAR-4 ovarian) of 65.1 µM, a TGI (MALME-3M melanoma) of 50.1 µM and a TGI (OVCAR-8 ovarian) of 45.1 µM. It also gave a TGI (HCT-116 colon) of 28.6 µM, a TGI (SF-268 CNS) of 95.4 µM and a TGI (RPMI-8226 leukemia) of 43.8 µM. It also gave a TGI (DMS 273 small cell lung) of over 100 µM, a TGI (SK-MEL-2 melanoma) of 38.7 µM and a TGI (A498 renal) of 29.6 µM. The TGI (OVCAR-5 ovarian) was 54.2 µM, the TGI (M14 melanoma) was over 100 µM and the TGI (CAKI-1 renal) was 45.3 µM. For the same compound, the TGI (COLO 205 colon) was 34 µM, the TGI (RXF-631 renal) was 94.8 µM and the TGI (ACHN renal) was 52.3 µM. The TGI (SNB-19 CNS) was 64.1 µM, the TGI (K-562 leukemia) was over 100 µM and the TGI (A549 NSCLC) was 55.6 µM. It also gave a TGI (M19-MEL melanoma) of 51.1 µM, a TGI (SW-620 colon) of 58.3 µM and a TGI (XF 498 CNS) of 50.2 µM. For the same compound, the TGI (SK-OV-3 ovarian) was 67.4 µM, the TGI (SK-MEL-28 melanoma) was 92.3 µM and the TGI (SF-539 CNS) was 63.7 µM. It also gave a TGI (MOLT-4 leukemia) of over 100 µM, a TGI (DMS 114 small cell lung) of 79.6 µM and a TGI (NCI-H522 lung) of 26.2 µM. It also gave a TGI (UACC-257 melanoma) of 58.3 µM, a TGI (SK-MEL-5 melanoma) of 30.4 µM and a TGI (HT29 colon) of 40.9 µM. It also gave a TGI (UACC-62 melanoma) of 31.1 µM, a TGI (NCI-H226 lung) of 40.5 µM and a TGI (UO-31 renal) of 32.7 µM. It also gave a TGI (SNB-75 CNS) of 65.9 µM, a TGI (OVCAR-3 ovarian) of 39.5 µM and a TGI (786-0 renal) of 51.1 µM. For the same compound, the TGI (NCI-H460 lung) was 43.2 µM, the TGI (EKVX NSCLC) was 78.6 µM and the TGI (DLD-1 colon) was 53.6 µM. For the same compound, the TGI (NCI-H23 lung) was 29.5 µM, the TGI (IGROV1 ovarian) was 70.3 µM and the TGI (U251 CNS) was 75.5 µM.

With `CCCCCCCCNC(=O)SCCCC` the TGI (SN12C renal) was over 100 µM, the TGI (HCT-15 colon) was over 100 µM and the TGI (HOP-18 NSCLC) was over 100 µM. The TGI (HOP-92 NSCLC) was 49 µM, the TGI (KM12 colon) was over 100 µM and the TGI (TK-10 renal) was over 100 µM. The TGI (SF-295 CNS) was over 100 µM, the TGI (KM20L2 colon) was over 100 µM and the TGI (HL-60(TB) leukemia) was 43.7 µM. For the same compound, the TGI (CCRF-CEM leukemia) was 69 µM, the TGI (OVCAR-4 ovarian) was over 100 µM and the TGI (MALME-3M melanoma) was 63.1 µM. The TGI (OVCAR-8 ovarian) was over 100 µM, the TGI (RXF 393 renal) was 68 µM and the TGI (SF-268 CNS) was over 100 µM. The TGI (RPMI-8226 leukemia) was 58.7 µM, the TGI (DMS 273 small cell lung) was over 100 µM and the TGI (SK-MEL-2 melanoma) was 56.2 µM. For the same compound, the TGI (A498 renal) was over 100 µM, the TGI (OVCAR-5 ovarian) was over 100 µM and the TGI (M14 melanoma) was over 100 µM. It also gave a TGI (CAKI-1 renal) of 61.9 µM, a TGI (COLO 205 colon) of over 100 µM and a TGI (RXF-631 renal) of over 100 µM. It also gave a TGI (ACHN renal) of over 100 µM, a TGI (SNB-19 CNS) of 87.9 µM and a TGI (LOX IMVI melanoma) of 39.2 µM. For the same compound, the TGI (K-562 leukemia) was over 100 µM, the TGI (A549 NSCLC) was over 100 µM and the TGI (M19-MEL melanoma) was over 100 µM. It also gave a TGI (SW-620 colon) of over 100 µM, a TGI (XF 498 CNS) of 37.5 µM and a TGI (SK-OV-3 ovarian) of over 100 µM. It also gave a TGI (SK-MEL-28 melanoma) of over 100 µM, a TGI (SF-539 CNS) of over 100 µM and a TGI (MOLT-4 leukemia) of 84.9 µM. The TGI (NCI-H522 lung) was 76.7 µM, the TGI (SK-MEL-5 melanoma) was 44.4 µM and the TGI (HT29 colon) was 59.4 µM. For the same compound, the TGI (UACC-62 melanoma) was over 100 µM, the TGI (UO-31 renal) was 65.1 µM and the TGI (SNB-75 CNS) was 68.8 µM. For the same compound, the TGI (OVCAR-3 ovarian) was over 100 µM, the TGI (786-0 renal) was over 100 µM and the TGI (NCI-H460 lung) was 82.2 µM. For the same compound, the TGI (EKVX NSCLC) was 80.1 µM, the TGI (DLD-1 colon) was over 100 µM and the TGI (NCI-H23 lung) was over 100 µM. The TGI (IGROV1 ovarian) was over 100 µM, the TGI (LXFL 529 NSCLC) was over 100 µM and the TGI (U251 CNS) was over 100 µM.

`C#CCn1c(=O)[nH]c(=O)c2cccnc21` was tested, and the TGI (SN12C renal) was over 100 µM, the TGI (HCT-15 colon) was over 100 µM and the TGI (HOP-18 NSCLC) was over 100 µM. It also gave a TGI (HOP-92 NSCLC) of over 100 µM, a TGI (SR leukemia) of over 100 µM and a TGI (KM12 colon) of over 100 µM. For the same compound, the TGI (TK-10 renal) was over 100 µM, the TGI (SF-295 CNS) was over 100 µM and the TGI (KM20L2 colon) was over 100 µM. It also gave a TGI (HL-60(TB) leukemia) of over 100 µM, a TGI (OVCAR-4 ovarian) of over 100 µM and a TGI (MALME-3M melanoma) of over 100 µM. The TGI (SNB-78 CNS) was over 100 µM, the TGI (HOP-62 NSCLC) was over 100 µM and the TGI (HCT-116 colon) was over 100 µM. It also gave a TGI (HCC-2998 colon) of over 100 µM, a TGI (RXF 393 renal) of over 100 µM and a TGI (SF-268 CNS) of over 100 µM. For the same compound, the TGI (RPMI-8226 leukemia) was over 100 µM, the TGI (DMS 273 small cell lung) was over 100 µM and the TGI (SK-MEL-2 melanoma) was over 100 µM. For the same compound, the TGI (OVCAR-5 ovarian) was over 100 µM, the TGI (M14 melanoma) was over 100 µM and the TGI (CAKI-1 renal) was over 100 µM. It also gave a TGI (COLO 205 colon) of over 100 µM, a TGI (RXF-631 renal) of over 100 µM and a TGI (ACHN renal) of over 100 µM. It also gave a TGI (SNB-19 CNS) of over 100 µM, a TGI (LOX IMVI melanoma) of over 100 µM and a TGI (A549 NSCLC) of over 100 µM. It also gave a TGI (SW-620 colon) of over 100 µM, a TGI (XF 498 CNS) of over 100 µM and a TGI (SK-OV-3 ovarian) of over 100 µM. It also gave a TGI (SK-MEL-28 melanoma) of over 100 µM, a TGI (MOLT-4 leukemia) of over 100 µM and a TGI (NCI-H522 lung) of over 100 µM. The TGI (UACC-257 melanoma) was over 100 µM, the TGI (SK-MEL-5 melanoma) was over 100 µM and the TGI (NCI-H226 lung) was over 100 µM. The TGI (SNB-75 CNS) was over 100 µM, the TGI (786-0 renal) was over 100 µM and the TGI (DLD-1 colon) was over 100 µM. For the same compound, the TGI (NCI-H23 lung) was over 100 µM, the TGI (LXFL 529 NSCLC) was over 100 µM and the TGI (U251 CNS) was over 100 µM.
